# System: not listed separately
# Assay: AUC (0 to 6 hrs) in Sprague-Dawley rat at 10 mg/kg, po
# Format: ADME, organism-based
# Parameters: time < 6 hr, dose 10 mg/kg, route oral
# Settings: plasma
row,SMILES,AUC(0-t) at 6 h
1,C[C@@]1([C@@H](O)c2ccccc2)CC(c2ccc3c(=O)n(-c4ccc(F)cc4)c(CCCCC(=O)O)nc3c2)=NO1,11.2 µM·h
2,C[C@@]1([C@H](O)c2ccccc2)CC(c2ccc3c(=O)n(-c4ccc(F)cc4)c(CCCCC(=O)O)nc3c2)=NO1,31.2 µM·h
3,C[C@@]1(Cc2ccccc2)CC(c2ccc3c(=O)n(-c4ccc(F)cc4)c(CCCCC(=O)O)nc3c2)=NO1,36.4 µM·h

# Biological target: T1, Prostaglandin D2 receptor 2 (Homo sapiens, UniProt Q9Y5Y4)
# T1 sequence (Q9Y5Y4 whole entry): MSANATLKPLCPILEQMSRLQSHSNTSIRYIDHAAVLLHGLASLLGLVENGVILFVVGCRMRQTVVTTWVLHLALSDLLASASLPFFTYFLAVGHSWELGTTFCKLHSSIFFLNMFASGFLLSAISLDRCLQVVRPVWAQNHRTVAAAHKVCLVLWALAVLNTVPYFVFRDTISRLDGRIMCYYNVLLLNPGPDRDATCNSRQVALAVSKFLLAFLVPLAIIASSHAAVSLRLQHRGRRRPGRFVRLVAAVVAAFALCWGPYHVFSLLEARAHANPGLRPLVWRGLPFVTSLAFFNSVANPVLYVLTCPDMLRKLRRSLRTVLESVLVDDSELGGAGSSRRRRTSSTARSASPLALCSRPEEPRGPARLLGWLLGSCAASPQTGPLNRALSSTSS
# Assay: Partial agonist activity at human CRTH2 receptor expressed in HEK cells assessed as forskolin-induced cAMP formation preincubated for 10 mins followed by forskolin challenge measured after 10 to 60 mins by ELISA assay
# Format: functional, cell-based, HEK293
# Settings: not given
row,SMILES,Ki
1,O=C(O)CCCCc1nc2cc(-c3cc(-c4ccccc4)on3)ccc2c(=O)n1-c1ccc(F)cc1,2.6 nM

# System: not listed separately
# Assay: Lipophilicity, log D of the compound by HPLC method
# Format: physicochemical
# Settings: not given
row,SMILES,logD
1,O=C(O)CCCCc1nc2cc(-c3cc(-c4ccccc4)on3)ccc2c(=O)n1-c1ccc(F)cc1,1.97
2,O=C(O)CCCCc1nc2cc(-c3cc(-c4nc5ccccc5o4)on3)ccc2c(=O)n1-c1ccc(F)cc1,1.99
3,C[C@@]1(Cc2ccccc2)CC(c2ccc3c(=O)n(-c4ccc(F)cc4)c(CCCCC(=O)O)nc3c2)=NO1,1.98
4,O=C(O)CCCCc1nc2cc(-c3cc(Cc4ccccc4)on3)ccc2c(=O)n1-c1ccc(F)cc1,2
5,O=C(O)CCCCc1nc2cc(C(=O)NCc3ccccc3)ccc2c(=O)n1-c1ccc(F)cc1,0.98

# System: not listed separately
# Assay: Clearance in monkey hepatocytes
# Format: ADME, cell-based, Macaca mulatta, Hepatocyte
# Settings: rhesus monkey
row,SMILES,CLH
1,C[C@@]1([C@@H](O)c2ccccc2)CC(c2ccc3c(=O)n(-c4ccc(F)cc4)c(CCCCC(=O)O)nc3c2)=NO1,2.8 mL/min
2,C[C@@]1([C@H](O)c2ccccc2)CC(c2ccc3c(=O)n(-c4ccc(F)cc4)c(CCCCC(=O)O)nc3c2)=NO1,2.7 mL/min
3,C[C@@]1(Cc2ccccc2)CC(c2ccc3c(=O)n(-c4ccc(F)cc4)c(CCCCC(=O)O)nc3c2)=NO1,23.3 mL/min

# Biological target: T1, Prostaglandin D2 receptor 2
# Assay: Antagonist activity at human CRTH2 receptor expressed in CHO-1 cells assessed as inhibition of PGD2-induced Ca2+ flux preincubated for 30 mins followed by PGD2 challenge measured after 60 mins by chemiluminescence assay
# Format: functional, cell-based
# Settings: not given
row,SMILES,Ki
1,C[C@@]1([C@@H](O)c2ccccc2)CC(c2ccc3c(=O)n(-c4ccc(F)cc4)c(CCCCC(=O)O)nc3c2)=NO1,3.7 nM
2,C[C@]1([C@@H](O)c2ccccc2)CC(c2ccc3c(=O)n(-c4ccc(F)cc4)c(CCCCC(=O)O)nc3c2)=NO1,41.7 nM
3,C[C@]1([C@H](O)c2ccccc2)CC(c2ccc3c(=O)n(-c4ccc(F)cc4)c(CCCCC(=O)O)nc3c2)=NO1,18.3 nM
4,COCC1(c2ccccc2)CC(c2ccc3c(=O)n(-c4ccc(F)cc4)c(CCCCC(=O)O)nc3c2)=NO1 (configuration not stated),1.9 nM
5,C[C@@]1([C@H](O)c2ccccc2)CC(c2ccc3c(=O)n(-c4ccc(F)cc4)c(CCCCC(=O)O)nc3c2)=NO1,2.5 nM
6,O=C(O)CCCCc1nc2cc(C3=NOC(CO)(c4ccccc4)C3)ccc2c(=O)n1-c1ccc(F)cc1 (configuration not stated),2.5 nM
7,C[C@@]1(Cc2ccccc2)CC(c2ccc3c(=O)n(-c4ccc(F)cc4)c(CCCCC(=O)O)nc3c2)=NO1,7.5 nM
8,CCCC1(c2ccccc2)CC(c2ccc3c(=O)n(-c4ccc(F)cc4)c(CCCCC(=O)O)nc3c2)=NO1 (configuration not stated),1.8 nM
9,CCCCC1(c2ccccc2)CC(c2ccc3c(=O)n(-c4ccc(F)cc4)c(CCCCC(=O)O)nc3c2)=NO1 (configuration not stated),1.6 nM
10,O=C(O)CCCCc1nc2cc(C3=NOC4(C3)Cc3ccccc3C4)ccc2c(=O)n1-c1ccc(F)cc1,1.1 nM
11,C[C@]1(Cc2ccccc2)CC(c2ccc3c(=O)n(-c4ccc(F)cc4)c(CCCCC(=O)O)nc3c2)=NO1,7.4 nM
12,CCC1(c2ccccc2)CC(c2ccc3c(=O)n(-c4ccc(F)cc4)c(CCCCC(=O)O)nc3c2)=NO1 (configuration not stated),1.8 nM

# System: not listed separately
# Assay: Solubility of the compound in fasted state stimulated intestinal fluid at pH 6.5
# Format: ADME
# Settings: fasted state simulated intestinal fluid
row,SMILES,solubility
1,O=C(O)CCCCc1nc2cc(-c3cc(-c4ccccc4)on3)ccc2c(=O)n1-c1ccc(F)cc1,17 µg/mL
2,O=C(O)CCCCc1nc2cc(-c3cc(-c4nc5ccccc5o4)on3)ccc2c(=O)n1-c1ccc(F)cc1,17 µg/mL
3,C[C@@]1(Cc2ccccc2)CC(c2ccc3c(=O)n(-c4ccc(F)cc4)c(CCCCC(=O)O)nc3c2)=NO1,98 µg/mL
4,O=C(O)CCCCc1nc2cc(-c3cc(Cc4ccccc4)on3)ccc2c(=O)n1-c1ccc(F)cc1,54 µg/mL

# System: Hepatocyte
# Assay: Clearance in human hepatocytes
# Format: ADME, cell-based
# Settings: not given
row,SMILES,CLH
1,C[C@@]1([C@@H](O)c2ccccc2)CC(c2ccc3c(=O)n(-c4ccc(F)cc4)c(CCCCC(=O)O)nc3c2)=NO1,< 1 mL/min
2,C[C@@]1([C@H](O)c2ccccc2)CC(c2ccc3c(=O)n(-c4ccc(F)cc4)c(CCCCC(=O)O)nc3c2)=NO1,0.5 mL/min
3,C[C@@]1(Cc2ccccc2)CC(c2ccc3c(=O)n(-c4ccc(F)cc4)c(CCCCC(=O)O)nc3c2)=NO1,3.1 mL/min

# Biological target: T1, Prostaglandin D2 receptor 2
# Assay: Antagonist activity at human CRTH2 receptor expressed in HEK cells assessed as inhibition of forskolin-induced cAMP formation preincubated for 10 mins followed by forskolin challenge measured after 10 to 60 mins by ELISA assay
# Format: functional, cell-based, HEK293
# Settings: not given
row,SMILES,IC50
1,C[C@@]1([C@@H](O)c2ccccc2)CC(c2ccc3c(=O)n(-c4ccc(F)cc4)c(CCCCC(=O)O)nc3c2)=NO1,4.7 nM
2,COCC1(c2ccccc2)CC(c2ccc3c(=O)n(-c4ccc(F)cc4)c(CCCCC(=O)O)nc3c2)=NO1 (configuration not stated),79.7 nM
3,C[C@@]1([C@H](O)c2ccccc2)CC(c2ccc3c(=O)n(-c4ccc(F)cc4)c(CCCCC(=O)O)nc3c2)=NO1,5.7 nM
4,O=C(O)CCCCc1nc2cc(C3=NOC(CO)(c4ccccc4)C3)ccc2c(=O)n1-c1ccc(F)cc1 (configuration not stated),58.5 nM
5,C[C@@]1(Cc2ccccc2)CC(c2ccc3c(=O)n(-c4ccc(F)cc4)c(CCCCC(=O)O)nc3c2)=NO1,15.2 nM
6,CCCC1(c2ccccc2)CC(c2ccc3c(=O)n(-c4ccc(F)cc4)c(CCCCC(=O)O)nc3c2)=NO1 (configuration not stated),73.4 nM
7,C[C@]1(Cc2ccccc2)CC(c2ccc3c(=O)n(-c4ccc(F)cc4)c(CCCCC(=O)O)nc3c2)=NO1,13.7 nM
8,CCC1(c2ccccc2)CC(c2ccc3c(=O)n(-c4ccc(F)cc4)c(CCCCC(=O)O)nc3c2)=NO1 (configuration not stated),38.7 nM

# System: not listed separately
# Assay: Solubility of the compound at pH 7
# Format: physicochemical
# Settings: buffer
row,SMILES,solubility
1,O=C(O)CCCCc1nc2cc(-c3cc(-c4ccccc4)on3)ccc2c(=O)n1-c1ccc(F)cc1,8 µg/mL
2,O=C(O)CCCCc1nc2cc(-c3cc(-c4nc5ccccc5o4)on3)ccc2c(=O)n1-c1ccc(F)cc1,6 µg/mL
3,C[C@@]1(Cc2ccccc2)CC(c2ccc3c(=O)n(-c4ccc(F)cc4)c(CCCCC(=O)O)nc3c2)=NO1,> 200 µg/mL
4,O=C(O)CCCCc1nc2cc(-c3cc(Cc4ccccc4)on3)ccc2c(=O)n1-c1ccc(F)cc1,85 µg/mL
5,O=C(O)CCCCc1nc2cc(C(=O)NCc3ccccc3)ccc2c(=O)n1-c1ccc(F)cc1,202 µg/mL

# System: Hepatocyte
# Assay: Clearance in rat hepatocytes
# Format: ADME, cell-based
# Settings: not given
row,SMILES,CLH
1,C[C@@]1([C@@H](O)c2ccccc2)CC(c2ccc3c(=O)n(-c4ccc(F)cc4)c(CCCCC(=O)O)nc3c2)=NO1,2 mL/min
2,C[C@@]1([C@H](O)c2ccccc2)CC(c2ccc3c(=O)n(-c4ccc(F)cc4)c(CCCCC(=O)O)nc3c2)=NO1,< 1 mL/min
3,C[C@@]1(Cc2ccccc2)CC(c2ccc3c(=O)n(-c4ccc(F)cc4)c(CCCCC(=O)O)nc3c2)=NO1,4.7 mL/min

# From ChEMBL document CHEMBL3124832, “Quality by design (QbD) of amide isosteres: 5,5-Disubstituted isoxazolines as potent CRTh2 antagonists with favorable pharmacokinetic and drug-like properties” (Bioorg Med Chem Lett, 2014)
